# Test results as given in patent US9744164B2, “Neuroprotective polyphenol analogs” (Salk Institute for Biological Studies, priority 2011, dated 2017).
# Tests used:
# N9 microglial cells = assay: anti-inflammatory assay, LPS-induced microglial activation (NO release); type: cell-based, mouse; conditions: bacterial lipopolysaccharide, derivative 1-10 μM, 24 hr
# Protocol: Anti-inflammatory assay. Mouse N9 microglial cells plated in DME with 7.5% DFCS were treated with 10 μg/ml bacterial lipopolysaccharide (Sigma) alone or in the presence of the Fisetin derivatives (1-10 μM) or Fisetin (10 μM) as a positive control. After 24 hr the medium was removed, spun briefly to remove floating cells and 100 μl assayed for NO using 100 μl of the Griess Reagent (Sigma) in a 96 well plate. After incubation for 10 min at room temperature the absorbance at 550 nm was read on a microplate reader.
# Three secondary screens allowed assessment of three key activities of Fisetin that are highly relevant to stroke, as well as other neurological disorders: maintenance of glutathione (GSH), the major endogenous cellular antioxidant, inhibition of LPS-induced microglial activation, an indicator of anti-inflammatory activity and PC12 cell differentiation, a measure of neurotrophic activity. All of these activities are relevant to the nerve cell loss seen in stroke (Gelderblom, et al., Stroke. 2009, 40 (5), 1849-1857; Pandya, et al., Cent. Nerv. Syst. Agents. Med. Chem. (2011) Apr. 27; Lewerenz, et al., J. Neurochem. (2010) 113 (2), 502-504). […] To assess GSH maintenance, total intracellular GSH levels after a 24 hr treatment with the compound both in the absence and presence of glutamate, an inducer of GSH loss and oxidative stress (Tan, et al., Curr. Top. Med. Chem. (2001) 1, 497-506; Maher, et al., Free Radical Research. (2006) 40 (10), 1105-1111) was measured Inhibition of LPS-induced microglial activation was determined by treating N9 mouse microglial cells with LPS alone and in the presence of the compounds and assaying NO release into the medium 24 hr later (Zheng, et al., Int. Immunopharmacol. (2008) 8, (3), 484-494). PC12 cell differentiation was determined by treating PC12 cells with the compounds and looking at neurite outgrowth after 24 hr. In all cases, Fisetin was used as a positive control (Sagara, et al., J. Neurochem. (2004) 90, 1144-1155).
# The roles of the four different hydroxyl groups in the activity of Fisetin were studied. […] Cell viability was determined after 24 hr by the MTT assay. The ability to maintain GSH (GSH) was determined by treating HT22 cells with different doses of each derivative (1-10 μM) in the presence of 5 mM glutamate. After 24 hr cell extracts were prepared and analyzed for total GSH. Fisetin (10 μM) was used as a positive control. The ability to induce PC12 cell differentiation (PC12 diff'n) was determined by treating PC12 cells in N2 medium with different doses of each derivative (1-10 μM) for 24 hr. Differentiation was assessed by visual inspection with Fisetin (10 μM) as a positive control. Anti-inflammatory activity (microglia) was assessed in N9 microglial cells treated with bacterial lipopolysaccharide alone or in the presence different doses of each derivative (1-10 μM) for 24 hr. Fisetin was used as a positive control. TEAC values, a measure of direct antioxidant activity, were determined using the ABTS+ decolorization assay.
# HT22 cells = assay: in vitro ischemia assay (HT22 cell IAA assay); type: cell-based, mouse; conditions: for EC50 in vitro ischemia: HT22 cells, 20 μM IAA 2 hr, viability by MTT after 24 hr, 'no' = no protection; for improvement of neuroprotective activity/potency over Fisetin: relative to Fisetin, in vitro ischemia
# Protocol: For these studies, cultured HT22 mouse hippocampal cells were used as an in vitro stroke assay. HT22 cells were treated with iodoacetic acid (IAA), an irreversible inhibitor of glyceraldehyde 3-phosphate dehydrogenase (G3PDH) for 2 hr alone or in the presence of varying concentrations of Fisetin. G3PDH is an enzyme of the glycolysis pathway, which catalyzes the synthesis of 1,3-bisphosphoglycerate, a “high energy” intermediate used for the synthesis of ATP. Cell survival was measured using a standard colorimetric MTT (3-(4,5-dimethylthiazol-2-yl)-2,5-diphenyltetrazolium bromide) assay for cell survival MTT is a pale yellow substrate that is cleaved by living cells to yield a dark blue formazan product.
# Cytotoxicity assay. Cell viability was determined by a modified version of 3-(4,5-dimethylthiazol-2-yl)-2,5-diphenyl tetrazolium bromide (MTT) assay based on the standard procedure (Maher, et al., Brain Research. (2007), supra). Cells were seeded onto 96-well microtiter plates at a density of 5×10^3 cells per well. For the in vitro ischemia assay, the next day, the medium was replaced with DMEM supplemented with 7.5% DFCS and the cells were treated with 20 μM iodoacetic acid (IAA) alone or in the presence of the different derivatives. After 2 hr the medium in each well was aspirated and replaced with fresh medium without IAA but containing the derivatives. 20 hr later, the medium in each well was aspirated and replaced with fresh medium containing 2.5 μg/ml MTT. After 4 hr of incubation at 37° C., the cells were solubilized with 100 μl of a solution containing 50% dimethylformamide and 20% SDS (pH 4.7). The absorbance at 570 nm was measured on the following day with a microplate reader (Molecular Devices). Results were confirmed by visual inspection of the wells. Controls included compound alone to test for toxicity and compound with no cells to test for interference with the assay chemistry.
# For a primary screen, an in vitro ischemia model in combination with the HT22 nerve cell line (Maher, et al., Brain Research. (2007) 1173, 117-125) was chosen. […] To induce ischemia in the HT22 cells we used iodoacetic acid (IAA), a well-known, irreversible inhibitor of the glycolytic enzyme glyceraldehyde 3-phosphate dehydrogenase (G3PDH) (Winkler, et al., Exp. Eye Res. (2003) 76, 715-723). IAA has been used in a number of other studies to induce ischemia in nerve cells (Reshef, et al., Neurosci. Lett. (1997) 238, 37-40; Sperling, et al., Neursci. Lett. (2003) 351, 137-140; Rego, et al., Neurochem. Res. (1999) 24, 351-358; Sigalov, et al,. J. Mol. Neurosci. (2000) 15, 147-154; and Reiner, et al., Neurosci. Lett. (1990) 119, 175-178), including several recent screens for neuroprotective molecules (Biraboneye, et al., J. Med. Chem. (2009) 52 (14), 4358-4369; Biraboneye, et al., Chem. Med. Chem. (2010) 5 (1), 79-85). The changes following IAA treatment of neural cells are very similar to those seen in animal models of ischemic stroke (Lipton, et al., Physiol. Rev. (1999) 79, 1431-1568) and include alterations in membrane potential (Reiner, et al., Neurosci. Lett. (1990) 119, 175-178), breakdown of phospholipids (Taylor, et al., J. Pharmacol. Exp. Ther. (1996) 276, 1224-1231), loss of ATP (Winkler, et al., Exp. Eye Res. (2003) 76, 715-723; Sperling, et al., Neursci. Lett. (2003) 351, 137-140) and an increase in reactive oxygen species (ROS) (Taylor, et al., J. Pharmacol. Exp. Ther. (1996), supra; and Sperling, et al., Neursci. Lett. (2003) 351, 137-140).
# The roles of the four different hydroxyl groups in the activity of Fisetin were studied. […] Cell viability was determined after 24 hr by the MTT assay. The ability to maintain GSH (GSH) was determined by treating HT22 cells with different doses of each derivative (1-10 μM) in the presence of 5 mM glutamate. After 24 hr cell extracts were prepared and analyzed for total GSH. Fisetin (10 μM) was used as a positive control. […]
Structure (SMILES),microglia (anti-inflammatory activity) (N9 microglial cells),EC50 in vitro ischemia (HT22 cells),improvement of neuroprotective activity/potency over Fisetin (HT22 cells),enhancement of neuroprotective activity relative to CMS-027 (HT22 cells; relative to CMS-027),"further enhancement of neuroprotective activity (HT22 cells; benzene ring added to A ring, relative to CMS-04P)"
"COc1ccc(-c2cc(OC)c3ccccc3n2)cc1O [CMS-001, 4-methoxy-2-(3-hydroxy,4-methoxyphenyl)quinoline]",69%,no,,,
"O=c1cc(-c2ccc(O)c(O)c2)oc2c1ccc1ccccc12 [CMS-02P, reference compound]",55%,,~40 fold,,
"CCOc1ccc(-c2cc(OC)c3ccccc3n2)cc1OCC [CMS-004, 4-methoxy-2-(3,4-diethoxyphenyl)quinoline]",76%,no,,,
"CCOc1ccc(/C=C/C(=O)c2cc(C)c(C)cc2O)cc1OCC [CMS-013, (E)-3-(3,4-diethoxyphenyl)-1-(2-hydroxy-4,5-dimethylphenyl)prop-2-en-1-one]",56%,no,,,
"CCOc1ccc(-c2cc(=O)c3cc(C)c(C)cc3o2)cc1OCC [CMS-018, 2-(3,4-diethoxyphenyl)-6,7-dimethyl-4H-chromen-4-one]",2%,no,,,
"COc1cc(-c2ccc(O)cc2)nc2ccccc12 [CMS-022, 4-methoxy-2-(4-hydroxyphenyl)quinoline]",4%,no,,,
"Cc1cc2oc(-c3ccc(O)c(O)c3)cc(=O)c2cc1C [CMS-028, 2-(3,4-dihydroxyphenyl)-6,7-dimethyl-4H-chromen-4-one]",93%,,,2 fold,
"CCOc1ccc(/C=C/C(=O)c2ccc3ccccc3c2O)cc1OCC [CMS-032, (E)-3-(3,4-diethoxyphenyl)-1-(1-hydroxynaphthalen-2-yl)prop-2-en-1-one]",5%,no,,,
"CCOc1ccc(-c2cc(=O)c3ccc4ccccc4c3o2)cc1OCC [CMS-038, 2-(3,4-diethoxyphenyl)-4H-benzo[h]chromen-4-one]",2%,no,,,
"O=c1c(O)c(-c2ccc(O)c(O)c2)oc2c1ccc1ccccc12 [CMS-040, 2-(3,4-dihydroxyphenyl)-3-hydroxy-4H-benzo[h]chromen-4-one]",91%,,,,~5.5 fold
"COc1cc(-c2ccc(N3CCCC3)cc2)nc2ccccc12 [CMS-110, 4-methoxy-2-(4-(pyrrolidin-1-yl)phenyl)quinoline]",67%,no,,,
"COc1cc(-c2ccc([N+](=O)[O-])c(O)c2)nc2ccccc12 [CMS-111, 4-methoxy-2-(3-hydroxy-4-nitrophenyl)quinoline]",25%,no,,,
O=c1cc(-c2ccc(O)c(O)c2)oc2ccccc12 [PM-001],,,6 fold,,
O=c1cc(-c2ccc(O)c(O)c2)oc2ccc3ccccc3c12 [PM-003],,,~40 fold,,
"Cc1ccc2oc(-c3ccc(O)c(O)c3)c(O)c(=O)c2c1 [PM-010, 2-(3,4-dihydroxyphenyl)-3-hydroxy-6-methyl-4H-chromen-4-one]",,,10-100 fold,,
